From EP1581471B9, “CYCLOPENTENONE DERIVATIVES FOR CANCER THERAPY” (Dabur Research Foundation, priority 2002, dated 2004)
In brackets after ≈: the same amount, converted by molar mass.

Experiments:
[1] = system: L132; assay: three day MTT cytotoxicity assay; type: cell-based, human; conditions: L132 (lung), 72 hours
Procedure: (§1) A number of the cyclopentenone derivatives were tested for cytotoxicity against 9 human tumor cell lines. Briefly, a three day MTT cytotoxicity assay was performed, which is based on the principle of uptake of MTT (3-(4,5-dimethylthiazol-2-yl)-2,5-diphenyl tetrazolium bromide), a tetrazolium salt, by the metabolically active cells where it is metabolized by active mitochondria into a blue colored formazan product that is read spectrophotometrically. MTT was dissolved in phosphate buffered saline with a pH of 7.4 to obtain an MTT concentration of 5mg/ml; the resulting mixture was filtered through a 0.22 micron filter to sterilize and remove a small amount of insoluble residue. For each type of tumor cell, 10000 to 15000 cells were seeded in a 96-well culture plate and incubated with the individual cyclopentenone derivatives in a CO2 incubator for a total of 72 hours. Control cells not treated with the cyclopentenone derivatives were similarly incubated. The assay was terminated by adding 100 ug (20 ul) of MTT to each well, then incubating for additional one hour, and finally adding 50 ul of 10% SDS-0.01N HCl to each well to lyse the cells and dissolve formazan. After incubating for one hour, the plate was read spectrophotometrically at 540 nm and the percentage of cytotoxicity calculated using the following formula: Cytotoxicity percentage = 100 × [1-(X/R1)], [formula] where X = (absorbance of treated sample at 540 nm) - (absorbance of blank at 540 nm) R1 = absorbance of control sample at 540 nm.
(§2) The ED50 Values of the cytotoxicity defined as the concentration at which 50 % of the cells are killed in vitro was calculated for each cell line treated with each of the cyclopentenone derivatives.
(§3) The cell lines are PTC (all colon), MOLT-4 (leukemia), SW620 […], DU145 (prostate), KB (oral squamous cell), L132 (lung), MIAPaCa2 (Pancreas), Hep2, (larynx), PA-1 (ovary), HuTu80 (duodenum), ECV 304 (endothelial), and 293 (kidney).

[2] = system: ECV 304; assay: three day MTT cytotoxicity assay; type: cell-based, human; conditions: ECV 304 (endothelial), 72 hours
Procedure: as §1, §2, §3

[3] = system: PTC; assay: three day MTT cytotoxicity assay; type: cell-based, human; conditions: PTC (colon), 72 hours
Procedure: as §1, §2, §3

[4] = system: KB; assay: three day MTT cytotoxicity assay; type: cell-based, human; conditions: KB (oral squamous cell), 72 hours
Procedure: as §1, §2, §3

[5] = system: MIAPaCa2; assay: three day MTT cytotoxicity assay; type: cell-based, human; conditions: MIAPaCa2 (Pancreas), 72 hours
Procedure: as §1, §2, §3

[6] = system: MOLT-4; assay: three day MTT cytotoxicity assay; type: cell-based, human; conditions: MOLT-4 (leukemia), 72 hours
Procedure: as §1, §2, §3

[7] = system: SW620; assay: three day MTT cytotoxicity assay; type: cell-based, human; conditions: 72 hours
Procedure: as §1, §2, §3

[8] = system: PA-1; assay: three day MTT cytotoxicity assay; type: cell-based, human; conditions: PA-1 (ovary), 72 hours
Procedure: as §1, §2, §3

[9] = system: DU145; assay: three day MTT cytotoxicity assay; type: cell-based, human; conditions: DU145 (prostate), 72 hours
Procedure: as §1, §2, §3

[10] = system: Hep2; assay: three day MTT cytotoxicity assay; type: cell-based, human; conditions: Hep2 (larynx), 72 hours
Procedure: as §1, §2, §3

[11] = system: Caspase-3; assay: Caspase-3 induction in KB cells (colorimetric substrate DEVD-pNA); type: cell-based, Human; conditions: 5ug/ml
Procedure: Human squamous cell carcinoma (KB) were plated in a 25 cm^2 flask. When cultures achieved confluence, the cyclopentenone derivative of structure 20 was added to the cells. The final concentration of derivative of the structure 20 in the flask was 5ug/ml. The untreated wells served as controls. The cells were incubated with the drug for 2 different time points of 6 and 16 hours at 37°C. The cells were collected by centrifugation at 2000 r.p.m. for 10 minutes. The supernatant was gently removed and discarded while Lysis Buffer was added to the cell pellet (25ul of lysis buffer per […]). The cell lysate was incubated on ice for 10 minutes and centrifuged at 10,000-x g for 1 minute. The supernatant was transferred to a new tube and kept on ice. 50ul of the cell lysate was added in a 96 well plate. To this was added 2x Reaction Buffer. Prior to using reaction buffer, 10ul of fresh DTT stock per 1 ml of 2x Reaction Buffer was added. To each well 5ul of Caspase-3 colorimetric substrate (DEVD-pNA) was added. The plate was incubated for 1-2 hours at […]. and read at 405nm.
The level of caspase enzymatic activity in the cell lysate is directly proportional to the absorbance at 405nm. […]

[12] = system: VEGF; assay: VEGF levels in ECV304 endothelial cells (ELISA); type: cell-based, Human; conditions: 5ug/ml, 4 hours
Procedure: Human endothelial cells (ECV304) were plated at the density of 8-10 x10^5 cells per 2 ml in a six well plate. After an overnight incubation of cells at 37°C, cyclopentenone derivatives at a concentration of 5ug/ml was added to the wells. The untreated wells served as controls. The plates were incubated for 4 hours at 37°C. The medium was collected from all the wells (control and treated) and spun down at 2000 r.p.m to remove the cellular material. The supernatant was collected and used for ELISA (Quantikine human VEGF, R&D Systems). The assay employs the quantitative sandwich enzyme immunoassay technique. A monoclonal antibody specific for VEGF has been pre-coated onto a microplate. Standards and samples were pipetted into the wells and VEGF present was bound by the immobilized antibody. After washing away the unbound substances, an enzyme-linked polyclonal antibody specific for VEGF was added to the wells. Following a wash to remove any unbound antibody-enzyme reagent, a substrate solution was added to the wells and color developed in proportion to the amount of VEGF bound in the initial step. The optical density of each well was determined within 30 minutes using a microplate reader set to 450nm and reference wavelength at 540nm. The VEGF levels were inhibited by the addition of cyclopentenone derivatives in vitro.

[13] = system: tubulin; assay: tubulin polymerization in vitro (absorbance at 340 nm); type: biochemical; conditions: tubulin 1mg/ml, 37°C, pH 6.9; read-out: IC50 values (uM) for inhibition of Tubulin Polymerization
Procedure: The cyclopentenone derivatives were checked for their effects on tubulin polymerization in vitro. Briefly, the tubulin assembly reaction was performed at 37°C in buffer containing 80 mM PIPES, 1mM EGTA, 1.0 mM GTP and 1mM MgCl2 (pH 6.9) at a tubulin concentration of 1mg/ml in the presence or absence of the cyclopentenone derivatives. The final concentration of the cyclopentenone derivatives in the reaction mixture varied from 1-5uM. The derivatives were dissolved in 0.1% DMSO. The control experiments were carried out with 0.1% DMSO. The tubulin polymerization was followed by measurement of the absorbance of the solution at 340 nm every 30 seconds. […] Thus the cyclopentenone derivatives mediated their observed anticancer activities by tubulin depolymerization.

[14] = system: HuTu80; assay: three day MTT cytotoxicity assay; type: cell-based, human; conditions: HuTu80 (duodenum), 72 hours
Procedure: as §1, §2, §3

[15] = system: 293; assay: three day MTT cytotoxicity assay; type: cell-based, human; conditions: 293 (kidney), 72 hours
Procedure: as §1, §2, §3

SMILES | ED50 (ug/ml) L132 [1] | ED50 (ug/ml) ECV 304 [2] | ED50 (ug/ml) PTC [3] | ED50 (ug/ml) KB [4] | ED50 (ug/ml) MiaPaca [5] | ED50 (ug/ml) MOLT4 [6] | ED50 (ug/ml) SW620 ([7]; SW620 (ovary)) | ED50 (ug/ml) PA1 [8] | ED50 (ug/ml) DU145 [9] | ED50 (ug/ml) Hep2 [10] | Percent Induction of Caspase-3 6 hours [11] | Percent Induction of Caspase-3 16 hours [11] | Percent Reduction in VEGF [12] | IC50 [13] | ED50 (ug/ml) HuTu80 [14] | ED50 (ug/ml) 293 [15] | ED50 (ug/ml) SW620 ([7]; SW620 (colon))
COc1ccc(C2=C(c3cc(OC)c(OC)c(OC)c3)C(=O)C(O)C2)cc1 (stereo not drawn) [Compound 48] | 9.0 ± 3.3 µg/mL (≈ 24.3 µM) | >100 µg/mL | 6.0 ± 1.5 µg/mL (≈ 16.2 µM) | 8 ± 2.1 µg/mL (≈ 21.6 µM) | 79 ± 9.5 µg/mL (≈ 213 µM) | <1.0 µg/mL | <1.0 µg/mL | <1.0 µg/mL | >100 µg/mL | <1.0 µg/mL | 18.4 ± 1.1% | 22.7 ± 1.5% | 23.7 ± 2.2% | 2.1 ± 0.1 µM | – | – | –
COc1ccc(C2=C(c3cc(OC)c(OC)c(OC)c3)C(=O)C(O[Si](C)(C)C(C)(C)C)C2)cc1 (stereo not drawn) [Compound 52, O-tert-Butyldimethylsilyloxy-3-(4-methoxyphenyl)-2-(3,4,5-trimethoxyphenyl)-cyclopent-2-en-1-one] | 9.0 ± 2.5 µg/mL (≈ 18.6 µM) | 16 ± 4.0 µg/mL (≈ 33 µM) | 16 ± 3.6 µg/mL (≈ 33 µM) | 7.0 ± 3.0 µg/mL (≈ 14.4 µM) | <1.0 µg/mL | 3.0 ± 1.5 µg/mL (≈ 6.19 µM) | 5.0 ± 1.0 µg/mL (≈ 10.3 µM) | 7.0 ± 3.5 µg/mL (≈ 14.4 µM) | 28 ± 4.0 µg/mL (≈ 57.8 µM) | 16 ± 3.0 µg/mL (≈ 33 µM) | – | – | – | – | – | – | –
COc1cc(C2=C(c3ccc(SC)cc3)CC(O[Si](C)(C)C(C)(C)C)C2=O)cc(OC)c1OC (stereo not drawn) [Compound 55, 5-tert-Butyldimethylsilyloxy-3-(4-thiomethylphenyl)-2-(3,4,5 trimethoxyphenyl)-cyclopent-2-en-1-one] | <1.0 µg/mL | >100 µg/mL | 14 ± 3.5 µg/mL (≈ 28 µM) | 10 ± 1.5 µg/mL (≈ 20 µM) | <1.0 µg/mL | <1.0 µg/mL | <1.0 µg/mL | <1.0 µg/mL | >100 µg/mL | >100 µg/mL | – | – | – | – | – | – | –
COc1ccc(C2=C(c3cc(OC)c(OC)c(OC)c3)C(=O)C(O[Si](C)(C)C(C)(C)C)C2)cc1OC(C)C (stereo not drawn) [Compound 56, 5-tert-Butyldimethylsilyloxy-3-(4-methoxy-3-i-propoxyphenyl)-2-(3,4,5-trimethoxyphenyl)-cyclopent-2-en-1-one] | 7 µg/mL (≈ 12.9 µM) | >100 µg/mL | >100 µg/mL | 7.5 ± 3.5 µg/mL (≈ 13.8 µM) | >100 µg/mL | 22.5 ± 4.0 µg/mL (≈ 41.5 µM) | – | 7.1 ± 1.5 µg/mL (≈ 13.1 µM) | 6.3 ± 2.1 µg/mL (≈ 11.6 µM) | 7.1 ± 1.5 µg/mL (≈ 13.1 µM) | – | – | – | – | 6 ± 0.5 µg/mL (≈ 11.1 µM) | >100 µg/mL | 9 ± 1.5 µg/mL (≈ 16.6 µM)
COc1ccc(C2=C(c3cc(OC)c(OC)c(OC)c3)C(=O)C(O)C2)cc1F (stereo not drawn) [Compound 64, 5-Hydroxy-3-(3-fluoro-4-methoxyphenyl)-2-(3,4,5-trimethoxyphenyl)-cyclopent-2-en-1-one] | <1 µg/mL | 19.5 ± 4.5 µg/mL (≈ 50.2 µM) | 20 ± 2.5 µg/mL (≈ 51.5 µM) | 4.5 ± 1.5 µg/mL (≈ 11.6 µM) | 64 ± 3.5 µg/mL (≈ 165 µM) | – | – | – | 27 ± 3.5 µg/mL (≈ 69.5 µM) | <1 µg/mL | – | – | – | – | <1 µg/mL | >100 µg/mL | <1 µg/mL
COc1ccc(C2=C(c3cc(OC)c(OC)c(OC)c3)/C(=N\O)C(O)C2)cc1F (stereo not drawn) [Compound 66] | <1 µg/mL | 43 ± 4.5 µg/mL (≈ 107 µM) | 27 ± 3.5 µg/mL (≈ 66.9 µM) | <1 µg/mL | 94 ± 10.0 µg/mL (≈ 233 µM) | – | – | – | 10 ± 5.1 µg/mL (≈ 24.8 µM) | <1 µg/mL | 17.0 ± 1.0% | 22.1 ± 0.6% | 12.9 ± 2.9% | 2 ± 0.6 µM | 9 ± 3.1 µg/mL (≈ 22.3 µM) | >100 µg/mL | <1 µg/mL
COc1ccc(C2=C(c3cc(OC)c(OC)c(OC)c3)C(=O)C(O)C2)cc1Cl (stereo not drawn) [Compound 67, 5-Hydroxy-3-(3-chloro-4-methoxyphenyl)-2-(3,4,5-trimethoxyphenyl)-cyclopent-2-en-1-one] | <1 µg/mL | 20 ± 3.5 µg/mL (≈ 49.4 µM) | 30 ± 4.0 µg/mL (≈ 74.1 µM) | 2.5 ± 0.1 µg/mL (≈ 6.18 µM) | >100 µg/mL | – | <1 µg/mL | – | 40 ± 8.5 µg/mL (≈ 98.8 µM) | <1 µg/mL | – | – | – | – | 29 ± 2.5 µg/mL (≈ 71.6 µM) | >100 µg/mL | –
COc1ccc(C2=C(c3cc(OC)c(OC)c(OC)c3)C(=O)C(O)C2)cc1O (stereo not drawn) [Compound 74] | – | – | – | – | – | – | – | – | – | – | 21.8 ± 2.8% | 28.4 ± 2.1% | 16.9 ± 0.5% | 1.8 ± 0.5 µM | – | – | –
